Data on 22 compounds can be found in ChEMBL document CHEMBL3739426, “Synthesis and biological evaluation of novel 2-isoxazoline fused cyclopentane derivatives as potential antimicrobial and anticancer agents” (Medchemcomm, 2015).

For assay [1], the system named is Candida albicans. As to the kind of experiment: Antimicrobial activity against Candida albicans by cup plate diffusion method. Type of assay: functional.
The nature of assay [2]: Cytotoxicity against human PC3 cells after 48 hrs by MTT assay. As to conditions: PC-3, 48 h. It counts as functional, cell-based. On the technique in general: Formazan colour is commonly taken as a measure of viable cells.
In assay [3] the test system is Priestia megaterium. Briefly: Antimicrobial activity against Bacillus megaterium by cup plate diffusion method. Type of assay: functional.
Assay [4] deals with A549. As to the kind of experiment: Cytotoxicity against human A549 cells after 48 hrs by MTT assay. The following applies: A549, 48 h. It counts as functional, cell-based.
The test system of assay [5] is MCF7. As to the kind of experiment: Cytotoxicity against human MCF7 cells after 48 hrs by MTT assay. Type of assay: functional, cell-based. As to conditions: MCF7, 48 h.
Assay [6] has as its system HT-29. Briefly: Cytotoxicity against human HT-29 cells after 48 hrs by MTT assay. Type of assay: functional, cell-based. The following applies: HT-29, 48 h.
The subject of assay [7] is Escherichia coli. As to the kind of experiment: Antimicrobial activity against Escherichia coli by cup plate diffusion method. Type of assay: functional.
The subject of assay [8] is Bacillus subtilis. As to the kind of experiment: Antimicrobial activity against Bacillus subtilis by cup plate diffusion method. Type of assay: functional.
The subject of assay [9] is HeLa. As to the kind of experiment: Cytotoxicity against human HeLa cells after 48 hrs by MTT assay. Type of assay: functional, cell-based.
Assay [10] relates to Pseudomonas sp. As to the kind of experiment: Antimicrobial activity against Pseudomonas sp. by cup plate diffusion method. Type of assay: functional.

In brackets after ≈: the same amount, converted by molar mass.

Broadly, the MIC is the least concentration at which growth counts as inhibited. Low values mean greater potency, high ones weaker potency. Usually IC50 stands for the point on the concentration scale where inhibition reaches its midpoint. With `N#Cc1ccc(C2=NO[C@H]3[C@@H]2[C@@H](C(=O)O)C[C@H]3C(=O)O)cc1`, the MIC in assay [1], in assay [3], in assay [7], in assay [8] and in [10] was greater than 100 µg/mL throughout. The IC50 in [2] is greater than 50 µg/mL; in assay [4] it was greater than 50 µg/mL; in [5], greater than 50 µg/mL; in assay [6], 30.3 µg/mL (≈ 101 µM); in [9] it was 33.3 µg/mL (≈ 111 µM).

Regarding GENTAMICIN, the MIC worked out at 2 µg/mL in [7] and 8 µg/mL in assay [10].

In the case of `Cc1ccc(C2=NO[C@@H]3[C@H](CO)C[C@H](CO)[C@H]23)cc1`, the MIC in [1], in [3], in assay [7], in [8] and in assay [10] was greater than 100 µg/mL each time. Besides, the IC50 in assay [2] is 28 µg/mL (≈ 107 µM); in assay [4], greater than 50 µg/mL; in assay [5], greater than 50 µg/mL; in assay [6] it was greater than 50 µg/mL; in assay [9] it was 26.5 µg/mL (≈ 101 µM).

In the case of `OC[C@@H]1C[C@H](CO)[C@@H]2C(c3ccccc3Cl)=NO[C@H]12`, the MIC in [1] is greater than 100 µg/mL; in assay [3] it was greater than 100 µg/mL; in [7] it was greater than 100 µg/mL; in assay [8], 74.4 µg/mL (≈ 264 µM); in [10], greater than 100 µg/mL. Further, the IC50 is greater than 50 µg/mL in assay [2]; greater than 50 µg/mL in [4]; greater than 50 µg/mL in assay [5]; 33.8 µg/mL (≈ 120 µM) in assay [6]; greater than 50 µg/mL in assay [9].

Consider `COc1ccc(C2=NO[C@@H]3[C@H](CO)C[C@H](CO)[C@H]23)cc1`, for which the MIC in assay [1], in [3], in assay [7], in [8] and in assay [10] was greater than 100 µg/mL in each case. For the same compound, the IC50 in assay [2] is greater than 50 µg/mL; in assay [4] it was 36.6 µg/mL (≈ 132 µM); in assay [5], 23.7 µg/mL (≈ 85.5 µM); in [6], greater than 50 µg/mL; in assay [9], greater than 50 µg/mL.

Turning to `COC(=O)[C@H]1C[C@@H](C(=O)OC)[C@H]2ON=C(c3ccc(F)cc3)[C@H]21`, the MIC in assay [1], in assay [3], in assay [7], in assay [8] and in [10] was greater than 100 µg/mL each time. For the same compound, the IC50 in assay [2] is greater than 50 µg/mL; in [4], greater than 50 µg/mL; in assay [5], 39.4 µg/mL (≈ 123 µM); in assay [6] it was greater than 50 µg/mL; in assay [9], 20.1 µg/mL (≈ 62.6 µM).

Turning to `O=C(O)[C@H]1C[C@@H](C(=O)O)[C@H]2ON=C(c3ccc4ccccc4c3)[C@H]21`, the MIC in assay [1], in assay [3], in assay [7], in [8] and in [10] was greater than 100 µg/mL throughout. In addition, the IC50 in assay [2] was greater than 50 µg/mL; in assay [4] it was greater than 50 µg/mL; in [5], 31.8 µg/mL (≈ 97.7 µM); in [6], 29.7 µg/mL (≈ 91.3 µM); in assay [9] it was greater than 50 µg/mL.

For the compound `COC(=O)[C@H]1C[C@@H](C(=O)OC)[C@H]2ON=C(c3ccc(Br)cc3)[C@H]21`, the minimum inhibitory concentration (MIC) in assay [1], in assay [3], in assay [7], in [8] and in [10] was greater than 100 µg/mL in each case. The IC50 in [2] was greater than 50 µg/mL; in assay [4], greater than 50 µg/mL; in assay [5] it was greater than 50 µg/mL; in assay [6], greater than 50 µg/mL; in [9], 27.4 µg/mL (≈ 71.7 µM).

Turning to `COC(=O)[C@H]1C[C@@H](C(=O)OC)[C@H]2ON=C(c3ccc(C#N)cc3)[C@H]21`, the MIC in [1], in assay [3], in assay [7], in assay [8] and in [10] was greater than 100 µg/mL in each case. For the same compound, the IC50 in assay [2], in [4], in assay [5], in assay [6] and in assay [9] was greater than 50 µg/mL throughout.

Turning to `COc1ccc(C2=NO[C@H]3[C@@H]2[C@@H](C(=O)O)C[C@H]3C(=O)O)cc1`, the MIC in assay [1], in assay [3], in assay [7], in assay [8] and in assay [10] was greater than 100 µg/mL each time. Besides, the IC50 in [2], in [4], in [5], in assay [6] and in assay [9] was greater than 50 µg/mL throughout.

Consider `Cc1ccc(C2=NO[C@H]3[C@@H]2[C@@H](C(=O)O)C[C@H]3C(=O)O)cc1`, for which the MIC in assay [1], in [3], in assay [7], in assay [8] and in [10] was greater than 100 µg/mL each time. Besides, the IC50 in assay [2], in assay [4], in assay [5], in assay [6] and in assay [9] was greater than 50 µg/mL in each case.

As to `COc1ccc(C2=NO[C@@H]3[C@H](CO)C[C@H](CO)[C@H]23)cc1OC`, the MIC in assay [1] amounted to 4.6 µg/mL (≈ 15 µM); in assay [3], 46.8 µg/mL (≈ 152 µM); in [7] it was 0.92 µg/mL (≈ 2.99 µM); in assay [8] it was 46.8 µg/mL (≈ 152 µM); in [10], 1.2 µg/mL (≈ 3.9 µM). The IC50 in assay [2], in [4], in assay [5], in assay [6] and in assay [9] was greater than 50 µg/mL in each case.

With `COC(=O)[C@H]1C[C@@H](C(=O)OC)[C@H]2ON=C(c3ccc4ccccc4c3)[C@H]21`, the minimum inhibitory concentration (MIC) in assay [1], in assay [3], in [7], in [8] and in assay [10] was greater than 100 µg/mL in each case. The IC50 in assay [2], in assay [4], in assay [5], in assay [6] and in [9] was greater than 50 µg/mL throughout.

Turning to `OC[C@@H]1C[C@H](CO)[C@@H]2C(c3ccc(Br)cc3)=NO[C@H]12`, the MIC in assay [1] was greater than 100 µg/mL; in [3], 48.6 µg/mL (≈ 149 µM); in [7], greater than 100 µg/mL; in assay [8], 48.6 µg/mL (≈ 149 µM); in [10] it was greater than 100 µg/mL. Moreover, the IC50 in assay [2] was greater than 50 µg/mL; in [4], greater than 50 µg/mL; in [5], greater than 50 µg/mL; in [6], 37.3 µg/mL (≈ 114 µM); in [9] it was greater than 50 µg/mL.

Regarding `COC(=O)[C@H]1C[C@@H](C(=O)OC)[C@H]2ON=C(c3ccc(OC)c(OC)c3)[C@H]21`, the MIC in assay [1], in assay [3], in [7], in assay [8] and in [10] was greater than 100 µg/mL each time. Further, the IC50 in assay [2], in [4], in assay [5], in [6] and in [9] was greater than 50 µg/mL throughout.

For `O=C(O)[C@H]1C[C@@H](C(=O)O)[C@H]2ON=C(c3ccc(F)cc3)[C@H]21`, the MIC in assay [1] was greater than 100 µg/mL; in assay [3], greater than 100 µg/mL; in assay [7], 78 µg/mL (≈ 266 µM); in assay [8], greater than 100 µg/mL; in assay [10], 7.8 µg/mL (≈ 26.6 µM). Besides, the IC50 in assay [2], in assay [4], in assay [5], in assay [6] and in assay [9] was greater than 50 µg/mL each time.

Consider `O=C(O)[C@H]1C[C@@H](C(=O)O)[C@H]2ON=C(c3ccc(Cl)cc3)[C@H]21`, for which the MIC in assay [1] was greater than 100 µg/mL; in [3], 30 µg/mL (≈ 96.9 µM); in assay [7], greater than 100 µg/mL; in assay [8], 60 µg/mL (≈ 194 µM); in assay [10], greater than 100 µg/mL. The IC50 is greater than 50 µg/mL in assay [2]; 30 µg/mL (≈ 96.9 µM) in assay [4]; 28.5 µg/mL (≈ 92 µM) in assay [5]; greater than 50 µg/mL in assay [6]; 19 µg/mL (≈ 61.3 µM) in [9].

For the compound `COc1cc([C@@H]2c3cc4c(cc3[C@@H](O[C@@H]3O[C@@H]5CO[C@@H](C)O[C@H]5[C@H](O)[C@H]3O)[C@H]3COC(=O)[C@H]23)OCO4)cc(OC)c1O` [ETOPOSIDE], the IC50 in assay [2] is 7.2 µg/mL (≈ 12.2 µM); in assay [4], 8.9 µg/mL (≈ 15.1 µM); in [5], 11.9 µg/mL (≈ 20.3 µM); in assay [6], 4.21 µg/mL (≈ 7.15 µM); in assay [9], 2.35 µg/mL (≈ 3.99 µM).

Turning to `COc1ccc(C2=NO[C@H]3[C@@H]2[C@@H](C(=O)O)C[C@H]3C(=O)O)cc1OC`, the MIC in assay [1] was 81.6 µg/mL (≈ 243 µM); in assay [3] it was greater than 100 µg/mL; in assay [7] it was 88.4 µg/mL (≈ 264 µM); in assay [8], greater than 100 µg/mL; in assay [10], 44.2 µg/mL (≈ 132 µM). Further, the half-inhibitory concentration (IC50) in assay [2] is greater than 50 µg/mL; in assay [4] it was greater than 50 µg/mL; in assay [5] it was greater than 50 µg/mL; in assay [6], 40.6 µg/mL (≈ 121 µM); in assay [9], greater than 50 µg/mL.

As for `N#Cc1ccc(C2=NO[C@@H]3[C@H](CO)C[C@H](CO)[C@H]23)cc1`, the MIC in [1] came out at 11 µg/mL (≈ 40.4 µM); in [3], 21 µg/mL (≈ 77.1 µM); in assay [7], 2.1 µg/mL (≈ 7.71 µM); in [8], 21 µg/mL (≈ 77.1 µM); in assay [10] it was 2.1 µg/mL (≈ 7.71 µM). Further, the IC50 in assay [2], in [4], in [5], in assay [6] and in assay [9] was greater than 50 µg/mL throughout.

As for `C[C@@H]1[C@H](O)[C@@H](C)/C=C/C=C/C=C/C=C/C=C/C=C/C=C/[C@H](O[C@@H]2O[C@H](C)[C@@H](O)[C@H](N)[C@@H]2O)C[C@@H]2O[C@](O)(C[C@@H](O)C[C@@H](O)[C@H](O)CC[C@@H](O)C[C@@H](O)CC(=O)O[C@H]1C)C[C@H](O)[C@H]2C(=O)O` [AMPHOTERICIN B], the MIC in assay [1] was found to be 5 µg/mL (≈ 5.41 µM).

`CC1(C)S[C@@H]2[C@H](NC(=O)[C@H](N)c3ccccc3)C(=O)N2[C@H]1C(=O)O` [AMPICILLIN]: the minimum inhibitory concentration (MIC) in assay [3] and in assay [8] was 25 µg/mL (≈ 71.5 µM) throughout.
